From patent publication US6762046B2, “Polypeptide having β-fructofuranosidase activity” (Kabushiki Kaisha Hayashibara Seibutsu Kagaku Kenkyujo, priority 1996, dated 2004)

What was measured:
[1] = test system: polypeptide having β-fructofuranosidase activity; assay: Specificity for fructofuranosyl transfer from sucrose to acceptors (TLC); type: biochemical, Bacillus sp. V230; set-up: key: Compared with a reaction mixture of sucrose, “−” means unchanged; +: the size and color of a spot for fructofuranosyl acceptor reduced slightly, and spot for fructofuransyl-transferred product was slightly detected; ++: the size and color of a spot for fructofuranosyl acceptor more reduced and a spot for fructofuransyl transferred product was clearly observed; details: acceptor and sucrose (donor) in equal weight, 10 w/v %, 2 units/g sucrose of polypeptide of Example 2-1, 40° C., pH 5.5, 24 hours
Experimental: Using as fructofuranosyl acceptors the monosaccharides, oligosaccharides and alcohols in Table 1, the specificity of the present polypeptide for fructofuranosyl transfer was studied: Any one of the fructofuranosyl acceptors in Table 1 and sucrose as a fructofuranosyl donor were mixed in an equal amount by weight, and the mixture was dissolved in water into a 10 w/v % aqueous solution which was then mixed with 2 units/g sucrose, d.s.b., of a polypeptide obtained by the method in Example 2-1, and reacted at 40° C. and pH 5.5 for 24 hours. Thereafter, the reaction mixture was separated by TCL similarly as above, and the plate was colored by spraying 0.5 N phosphate solution containing 0.2 w/v % naphthoresorcinol, and the plate was heated at 110° C. for 5 min to color and detect fructofuranosyl-transferred products.

[2] = test system: polypeptide having β-fructofuranosidase activity; assay: Action of the polypeptide on saccharide substrates (release of fructose, TLC); type: biochemical, Bacillus sp. V230; details: 2 w/v % substrate, 2 units/g substrate of polypeptide of Example 2-1, 40° C., pH 5.5, 24 hours
Experimental: An aqueous solution, containing as a substrate sucrose, raffinose, erlose, stachyose, lactosucrose, xylosylfructoside, maltose, cellobiose, lactose, inulin or levan in a concentration of 2 w/v %, was mixed with 2 units/g substrate, d.s.b., of a polypeptide obtained by the method in Example 2-1 and reacted at 40° C. and pH 5.5 for 24 hours.
An adequate amount of each reaction mixture was spotted on “KIESELGEL 60”, an aluminum plate for thin layer chromatography (TLC) commercialized by Merck & Co., Inc., Rahway, USA, developed at ambient temperature using a developing solvent system of 1-butanol, pyridine and water (=7:3:1 by volume), and dried. When the reaction mixture contained fructose, the plate was colored by spraying 0.5 N phosphate solution containing 0.2 w/v % naphthoresorcinol, and heated at 110° C. for 5 min, while the plate was colored by spraying a mixture solution of 20 w/v % sulfuric acid in methanol and heated at 110° C. for 10 min.

[3] = β-fructofuranosidase activity assay (reducing power, Somogyi-Nelson's method); type: biochemical; details: sucrose substrate, 20 mM acetate buffer pH 6.0 with 5 mM calcium chloride, 40° C., 10 min
Experimental: The activity of the present β-fructofuranosidase was assayed as follows: Sucrose as a substrate was dissolved in 20 mM acetate buffer (pH 6.0) containing 5 mM calcium chloride to give a concentration of 0.1 w/v %. To 5 ml of the solution was added 0.2 ml of a test sample, and the mixture was incubated at 40° C. for 10 min, followed by suspending the enzymatic reaction by the addition of 0.2 ml of the Somogyl copper solution and assaying the reducing power of the reaction mixture by the Somogyi-Nelson's method. As a control, a control solution, which was preheated at 100° C. for 10 min to inactivate the enzyme, was treated similarly as above. Under the above reaction conditions, one unit β-frustofuranosidase activity is defined as the amount of enzyme or polypeptide which gives a reducing power equal to that of 2 μmole of glucose per minute.

Optimum pH = type: biochemical; details: incubated at 40° C. for 10 min in 20 mM buffers
Optimum temperature = type: biochemical; details: 10 min, 20 mM acetate buffer pH 6.0
Thermal stability = type: physicochemical; details: incubated for 60 min in 50 mM acetate buffer pH 6.0

CCCCO [1-Butanol]
Formation of fructofuranosyl-transferred product [1]: −

CCCO [1-Propanol]
Formation of fructofuranosyl-transferred product [1]: −

CCC(C)O (centres unmarked) [2-Butanol]
Formation of fructofuranosyl-transferred product [1]: −

CC(C)O [2-Propanol]
Formation of fructofuranosyl-transferred product [1]: −

O=C[C@H](O)[C@@H](O)[C@H](O[C@@H]1O[C@H](CO)[C@@H](O)[C@H](O)[C@H]1O)[C@H](O)CO [Cellobiose]
action on substrate to release fructose [2]: did not substantially act on | Formation of fructofuranosyl-transferred product [1]: ++

O=C(CO)[C@@H](O)[C@H](O)[C@H](O)CO [D-Fructose]
Formation of fructofuranosyl-transferred product [1]: +

O=C[C@H](O)[C@@H](O)[C@@H](O)[C@H](O)CO [D-Galactose]
Formation of fructofuranosyl-transferred product [1]: ++

O=C[C@@H](O)[C@@H](O)[C@H](O)[C@H](O)CO [D-Mannose]
Formation of fructofuranosyl-transferred product [1]: +

OC[C@@H](O)[C@@H](O)[C@H](O)[C@@H](O)CO [D-Sorbitol]
Formation of fructofuranosyl-transferred product [1]: ++

OC[C@@H](O)[C@H](O)[C@@H](O)CO [D-Xylitol]
Formation of fructofuranosyl-transferred product [1]: ++

O=C[C@H](O)[C@@H](O)[C@H](O)CO [D-Xylose]
Formation of fructofuranosyl-transferred product [1]: ++

CCO [Ethanol]
Formation of fructofuranosyl-transferred product [1]: +

OCCO [Ethylene glycol]
Formation of fructofuranosyl-transferred product [1]: ++

OCC(O)CO [Glycerol]
Formation of fructofuranosyl-transferred product [1]: ++

OC[C@H]1O[C@H](OC[C@H]2OC(O)[C@H](O)[C@@H](O)[C@@H]2O)[C@H](O)[C@@H](O)[C@@H]1O (some centres unmarked) [Isomaltose]
Formation of fructofuranosyl-transferred product [1]: ++

OC[C@H]1O[C@H](O[C@H]2C(O)O[C@H](CO)[C@@H](O)[C@@H]2O)[C@H](O)[C@@H](O)[C@@H]1O (some centres unmarked) [Kojibiose]
Formation of fructofuranosyl-transferred product [1]: +

O=C[C@H](O)[C@@H](O)[C@@H](O)CO [L-Arabinose]
Formation of fructofuranosyl-transferred product [1]: +

C[C@H](O)[C@H](O)[C@@H](O)[C@@H](O)C=O [L-Rhamnose]
Formation of fructofuranosyl-transferred product [1]: +

O=C(CO)[C@@H](O)[C@H](O)[C@@H](O)CO [L-Sorbose]
Formation of fructofuranosyl-transferred product [1]: +

OC[C@H]1O[C@@H](O[C@H]2[C@H](O)[C@@H](O)C(O)O[C@@H]2CO)[C@H](O)[C@@H](O)[C@H]1O (some centres unmarked) [Lactose]
action on substrate to release fructose [2]: did not substantially act on | Formation of fructofuranosyl-transferred product [1]: ++

OC[C@@H](O)[C@@H](O[C@H]1O[C@H](CO)[C@@H](O)[C@H](O)[C@H]1O)[C@H](O)[C@@H](O)CO [Maltitol]
Formation of fructofuranosyl-transferred product [1]: ++

OC[C@H]1O[C@H](O[C@H]2[C@H](O)[C@@H](O)[C@H](O)O[C@@H]2CO)[C@H](O)[C@@H](O)[C@@H]1O [Maltose]
action on substrate to release fructose [2]: did not substantially act on | Formation of fructofuranosyl-transferred product [1]: ++

OC[C@H]1O[C@H](OCC2O[C@@H](O)[C@H](O)[C@@H](O)[C@@H]2O)[C@H](O)[C@@H](O)[C@H]1O (some centres unmarked) [Melibiose]
Formation of fructofuranosyl-transferred product [1]: ++

CO [Methanol]
Formation of fructofuranosyl-transferred product [1]: +

OC[C@H]1O[C@@H](O[C@H]2O[C@H](CO)[C@@H](O)[C@H](O)[C@H]2O)[C@H](O)[C@@H](O)[C@@H]1O [Neotrehalose]
Formation of fructofuranosyl-transferred product [1]: +

OC[C@H]1O[C@H](OC[C@H]2OC(O)(CO)[C@@H](O)[C@@H]2O)[C@H](O)[C@@H](O)[C@@H]1O (some centres unmarked) [Palatinose]
Formation of fructofuranosyl-transferred product [1]: +

OC[C@H]1O[C@H](OC[C@H]2O[C@H](O[C@H]3[C@H](O)[C@@H](O)C(O)O[C@@H]3CO)[C@H](O)[C@@H](O)[C@@H]2O)[C@H](O)[C@@H](O)[C@@H]1O (some centres unmarked) [Panose]
Formation of fructofuranosyl-transferred product [1]: ++

OC[C@H]1O[C@H](OC[C@H]2O[C@H](O[C@]3(CO)O[C@H](CO)[C@@H](O)[C@@H]3O)[C@H](O)[C@@H](O)[C@@H]2O)[C@H](O)[C@@H](O)[C@H]1O [Raffinose]
action on substrate to release fructose [2]: acted on | Formation of fructofuranosyl-transferred product [1]: +

OC[C@H]1O[C@H](O[C@H]2O[C@H](CO)[C@@H](O)[C@H](O)[C@H]2O)[C@H](O)[C@@H](O)[C@@H]1O [Trehalose]
Formation of fructofuranosyl-transferred product [1]: ++

O=C(CO)[C@@H](O[C@H]1O[C@H](CO)[C@@H](O)[C@H](O)[C@H]1O)[C@H](O)[C@H](O)CO [Turanose]
Formation of fructofuranosyl-transferred product [1]: +

OC[C@H]1O[C@@](CO)(O[C@H]2O[C@H](CO)[C@@H](O[C@H]3O[C@H](CO)[C@@H](O)[C@H](O)[C@H]3O)[C@H](O)[C@H]2O)[C@@H](O)[C@@H]1O [erlose]
action on substrate to release fructose [2]: acted on

OC[C@H]1O[C@@H](O[C@H]2[C@H](O)[C@@H](O)[C@@H](O[C@]3(CO)O[C@H](CO)[C@@H](O)[C@@H]3O)O[C@@H]2CO)[C@H](O)[C@@H](O)[C@H]1O [lactosucrose]
action on substrate to release fructose [2]: acted on

OC[C@H]1O[C@H](OC[C@H]2O[C@H](OC[C@H]3O[C@H](O[C@]4(CO)O[C@H](CO)[C@@H](O)[C@@H]4O)[C@H](O)[C@@H](O)[C@@H]3O)[C@H](O)[C@@H](O)[C@H]2O)[C@H](O)[C@@H](O)[C@H]1O [stachyose]
action on substrate to release fructose [2]: acted on

OC[C@H]1O[C@@](CO)(O[C@H]2O[C@H](CO)[C@@H](O)[C@H](O)[C@H]2O)[C@@H](O)[C@@H]1O [sucrose]
action on substrate to release fructose [2]: acted on

OC[C@H]1O[C@](CO)(O[C@H]2OC[C@@H](O)[C@H](O)[C@H]2O)[C@@H](O)[C@@H]1O [xylosylfructoside]
action on substrate to release fructose [2]: acted on

Maltotriose
Formation of fructofuranosyl-transferred product [1]: ++

inulin
action on substrate to release fructose [2]: did not substantially act on

levan
action on substrate to release fructose [2]: did not substantially act on

B1: polypeptide in Example 2-1: polypeptide with β-fructofuranosidase activity produced by transformant BBF4 (Escherichia coli), containing the amino acid sequence of SEQ ID NO:3 (protein)
chain: MNSGDYKEDYGFAHITRADMLKIPGQQNSPQFKVPQFNASAIKNIDSAKGYDKSGNLIDLDVWDSWPLQNADGTAANYHGYHIVSALAGDPKNSDDTPLHLFYQKVGDTSIDSWKNAGRVFEDMDKFVPNDPYLKYQTQEWSGSATLTKDGQVRLFYTDYSGNPEDGGTGAGNQIISTAQVNLSQPDAATLKVDGVSDHKSVFDGGDGTVYQNIQQFIDEGKWISGDNHTLRDPHYVEDKGHKYLVFEANTGTTDGYQGDQSFNNKAYYGGSDVFFQNEKNKLLQSPKKQIASLANGALGIVELADDYTVKSVMKPLVASNTVADEVERANIFKMNNKWYLFTDSRGSKMTSDGINDKDVYMLGPGGDSLNGPHNPINETGLVLNMNLDPADLTHTYSHCGIPHPEGNNVVLTSYMTNRGFYPEHHSHLRDKLGVNIKGSDTSGGENSSGQGQFP
specific activity (β-fructofuranosidase) [3]: 205 units/mg protein | optimum pH (Optimum pH): 5.5-6.0 | optimum temperature (Optimum temperature; in the absence of calcium ion): ~45 °C | optimum temperature (Optimum temperature; in the presence of 5 mM calcium ion): about 50 °C | thermal stability (stable up to temperature) (Thermal stability): ≤ 45 °C
